Read-outs that look alike come from different tables or passages of the source. Marks after values point to notes of the source that are not given here.
What was measured:
barley seeds = conditions: in vivo
Fusarium graminearum = format: cell-based; conditions: for % of Fusarium graminearum: barley var. Lacey
bacteria = format: cell-based
[1] = 8 hours steeping
Alternaria spp. = format: cell-based; conditions: barley var. Lacey
[2] = DON variation during the malting process; conditions: for % DON reduction: H process
Protocol: The goal of this experiment was to follow the main steps of malt production for DON increase or decrease when barley seeds were submitted to the hypochlorite process during the first steeping, compared with the same seed not submitted to the hypochlorite process. Two samples of 1000 grams of barley seeds infected with 3.2 ppm of DON were malted and their DON contents were measured during the following steps:
1. On 50 grams of seeds just after the first steeping (7 hours steep)
2. On 50 grams of seeds just after the second steeping (5 hours steep)
3. On 50 grams of seeds on the second day of malting (half malting)
4. On 50 grams of seeds on the fourth day of malting (end of malting)
5. On 50 grams of seeds after the fist step of kilning (6 hours at 45° C.)
6. On 50 grams of seeds after the second step of kilning (3 hours at 65° C.)
7. On 50 grams of seeds after the third step of kilning (2 hours at 85° C.)
8. Control (dry seeds without treatment).

Fusarium = conditions: literature reports; cited from earlier work
[3] = wheat seeds; 1% concentration; cited from earlier work
[4] = Table 6, means of 50 seeds plated in ¼ PDA medium

Structure (SMILES) | Germin. (%) (barley seeds) | Fusarium (%) (Fusarium graminearum) | Bacteria (%) (bacteria) | % Germination (barley seeds) [%] | % Bacteria (bacteria) [%] | also measured
CC(=O)OO [Ac. Perac. 0.25%, peracetic acid] | 76 | 2% | 62 |  |  | 
[K+].[OH-] [KOH (0.5%), potassium hydroxide] |  |  |  | 96 | 44 | % Fusarium (Fusarium graminearum): 44%
CC(=O)OO [Ac. Perac. 0.1%, peracetic acid] | 94 | 56% | 48 |  |  | 
OCl [Hypochlorite 0.8%, hypochlorite] | 80 |  | 2 | 88 | 0 | Fusarium (%) (Fusarium graminearum; Table 4, 8 hours steeping): 2%; % Fusarium (Fusarium graminearum; [4]): 8%; % of Fusarium graminearum (Fusarium graminearum; 2 min. disinfestations): 20%; % of Fusarium graminearum (Fusarium graminearum; 3 min. disinfestations): 18%; Total % of DON reduction ([1]; Table 4): 87.6%; DON ([1]; Table 4, dry seeds 9.7): 1.2 µg/mL; % of Alternaria spp. (Alternaria spp.; 2 min. disinfestations): 66%; % of Alternaria spp. (Alternaria spp.; 3 min. disinfestations): 68%
OCl [hypochlorite] |  |  |  |  |  | DON levels on "H" process (b) ([2]; 1. After the first steeping, seeds with 3.2 ppm DON): 0.7 ppm; DON levels on "H" process (b) ([2]; 2. After the second steeping): 0.4 ppm; DON levels on "H" process (b) ([2]; 3. Second day of malting): 0.4 ppm; DON levels on "H" process (b) ([2]; 4. Fourth day of malting): 0.4 ppm; DON levels on "H" process (b) ([2]; 5. Fist step of kilning): 0.3 ppm; DON levels on "H" process (b) ([2]; 6. Second step of kilning): 0.3 ppm; DON levels on "H" process (b) ([2]; 7. Third step of kilning): 0.4 ppm; % DON reduction ([2]; 1. After the first steeping): 78.1%; % DON reduction ([2]; 2. After the second steeping): 87.5%; % DON reduction ([2]; 3. Second day of malting): 87.5%; % DON reduction ([2]; 4. Fourth day of malting): 87.5%; % DON reduction ([2]; 5. Fist step of kilning): 90.6%; % DON reduction ([2]; 6. Second step of kilning): 90.6%; % DON reduction ([2]; 7. Third step of kilning): 87.5%; Fusarium reduction from seeds (Fusarium): ≤ 50%
CCO [Alco. 10%, Alcohol] | 2 | 44* % | 100 |  |  | 
CC(=O)OO [Ac. Perac. 0.5%, peracetic acid] | 28 | 4% | 28 |  |  | 
OCl [sodium hypochlorite] |  |  |  |  |  | increase of the level of the toxin (DON) [3]: 24%; level of the toxin (DON) after treatment [3]: 1.24 ppm
[Na+].[OH-] [NaOH 0.1%, sodium hydroxide] | 76 | 76% | 74 |  |  | 
[Na+].[OH-] [NaOH 1.0%, sodium hydroxide] | 66 | 2% | 6 |  |  | 
[Na+].[OH-] [NaOH 0.25%, sodium hydroxide] | 96 | 88% | 80 | 94 | 44 | % Fusarium (Fusarium graminearum): 44%
CC(=O)OO [Ac. Perac. 1.0%, peracetic acid] | 0 | 4% | 4 |  |  | 
[K+].[OH-] [KOH (0.25%), potassium hydroxide] |  |  |  | 94 | 82 | % Fusarium (Fusarium graminearum): 76%
[Cl-].[Na+] [Salt 5%, NaCl] | 80 |  | 78 |  |  | Fusarium (%) (Fusarium graminearum; Table 3, 8 hours steeping): 84%; Total % of DON reduction ([1]; Table 3): 77%; DON ([1]; Table 3, dry seeds 10.9): 2.5 µg/mL
[Na+].[OH-] [NaOH 0.5%, sodium hydroxide] | 88 | 68% | 50 | 96 | 8 | % Fusarium (Fusarium graminearum): 40%
CC(=O)O [Ac. Ac. Glacial 1.0, glacial acetic acid] | 0 |  | 0 |  |  | Fusarium (%) (Fusarium graminearum; Table 4, 8 hours steeping): 2%; Total % of DON reduction ([1]; Table 4): 71.1%; DON ([1]; Table 4, dry seeds 9.7): 2.8 µg/mL
CCOC(C)=O [Eth. Ac. 10%, Ethyl Acetate] | 0 |  | 4 |  |  | Fusarium (%) (Fusarium graminearum; Table 3, 8 hours steeping): 0%; Total % of DON reduction ([1]; Table 3): 70%; DON ([1]; Table 3, dry seeds 10.9): 3.3 µg/mL
CCOC(C)=O [Eth. Ac. 1%, Ethyl Acetate] | 6 |  | 90 |  |  | Fusarium (%) (Fusarium graminearum; Table 3, 8 hours steeping): 88%; Total % of DON reduction ([1]; Table 3): 68%; DON ([1]; Table 3, dry seeds 10.9): 3.5 µg/mL
OO [H2O2 3.0%, peroxide] | 92 | 20% | 62 |  |  | 
CC(=O)OO [Ac. Perac. 2.0%, peracetic acid] | 0 | 2% | 0 |  |  | 
CC(=O)O [Ac. Ac. Glacial 0.25%, glacial acetic acid] | 64 |  | 6 |  |  | Fusarium (%) (Fusarium graminearum; Table 4, 8 hours steeping): 2%; Total % of DON reduction ([1]; Table 4): 71.1%; DON ([1]; Table 4, dry seeds 9.7): 2.8 µg/mL
O=C([O-])O.[Na+] [NaHCO3 (0.25%), sodium bicarbonate] |  |  |  | 90 | 70 | % Fusarium (Fusarium graminearum; [4]): 52%
O=P([O-])([O-])O.[Na+].[Na+] [Na2HPO4 (0.25%), sodium phosphate dibasic] |  |  |  | 98 | 68 | % Fusarium (Fusarium graminearum; [4]): 68%
CCO [Alco. 1%, Alcohol] | 72 | 94% | 94 |  |  | 
CC(=O)O [Ac. Ac. Glacial 0.5, glacial acetic acid] | 8 |  | 2 |  |  | Fusarium (%) (Fusarium graminearum; Table 4, 8 hours steeping): 4%; Total % of DON reduction ([1]; Table 4): 62.9%; DON ([1]; Table 4, dry seeds 9.7): 3.6 µg/mL
OO [H2O2 1.0%, peroxide] | 94 | 38% | 47 |  |  | 
[Cl-].[Na+] [Salt 1%, NaCl] | 72 |  | 76 |  |  | Fusarium (%) (Fusarium graminearum; Table 3, 8 hours steeping): 90%; Total % of DON reduction ([1]; Table 3): 71%; DON ([1]; Table 3, dry seeds 10.9): 3.1 µg/mL
O=C([O-])O.[Na+] [NaHCO3 (0.5%), sodium bicarbonate] |  |  |  | 88 | 84 | % Fusarium (Fusarium graminearum; [4]): 72%
O=P([O-])([O-])O.[Na+].[Na+] [Na2HPO4 (0.5%), sodium phosphate dibasic] |  |  |  | 94 | 72 | % Fusarium (Fusarium graminearum; [4]): 70%
